This note sets out measurements from ChEMBL document CHEMBL1140122 (J Med Chem, 2008).

A value given as a limit tells only on which side of the number the result lay.

The subject of one series is Trypanosoma cruzi. Nature of the series: Antitrypanosomal activity against Trypanosoma cruzi Tulahuen C4 in african green monkey Vero cells after 120 hrs. It is filed as functional, organism-based.
The test system of a further series is DU-145. The series is described as follows: Cytotoxicity against human DU145 cells after 48 hrs. It is filed as functional. The conditions noted are these: DU-145, 48 h.
Another series relates to NCI-H460. Nature of the series: Cytotoxicity against human H460 cells after 48 hrs. The series is classed as functional. The conditions noted are these: NCI-H460, 48 h.
The subject of a further series is HT-29. Nature of the series: Cytotoxicity against human HT29 cells after 48 hrs. The series is classed as functional. The conditions noted are these: HT-29, 48 h.
A short description of series [1]: Cytotoxicity against BALB mouse 3T3 cells after 48 hrs. It is filed as cell-based. The conditions noted are these: BALB 3T3 cells.
The next series has as its system PC-3. Nature of the series: Cytotoxicity against human PC3 cells after 48 hrs. The series is classed as functional. The conditions noted are these: PC-3, 48 h.
The subject of a further series is M14. Nature of the series: Cytotoxicity against human M14 cells after 48 hrs. The series is classed as functional. As to conditions: M14, 48 h.
The test system of a further series is MCF7. Nature of the series: Cytotoxicity against human MCF7 cells after 48 hrs. As to conditions: MCF7, 48 h. The series is classed as functional.
In a further series the test system is K562. Nature of the series: Cytotoxicity against human K562 cells after 48 hrs. It is filed as functional. As to conditions: K562, 48 h.
A short description of series [2]: Selectivity index, IC50 for african green monkey Vero cells to IC50 for Trypanosoma cruzi Tulahuen C4. It is filed as functional.
In another series the test system is Vero. Nature of the series: Cytotoxicity against african green monkey Vero cells by MTT assay. The conditions noted are these: Chlorocebus sabaeus. The series is classed as cell-based. In general terms: Tetrazolium dyes change colour on reduction, which living cells bring about.

`COc1ccc(CCC(=O)c2c(O)cc(O)cc2OC)cc1`: the IC50 in the series on Trypanosoma cruzi was above 25 µM. The GI50 in the series with DU-145 is above 206 µM; in the series with NCI-H460 it was 128 µM; with HT-29, above 206 µM; in the series on PC-3, 59.9 µM; with M14, 109 µM; with MCF7 it was 65.5 µM. This compound yielded a GI50 in the series with K562 of 22.8 µM. Besides, the GI50 at 48 h in series [1] is above 206 µM.
For `COc1cc(O)c(C(=O)/C=C/c2ccc3c(c2)OCO3)c(OC)c1`, the IC50 in the series with Trypanosoma cruzi is above 25 µM. Moreover, the GI50 with DU-145 is above 190 µM; with NCI-H460, above 190 µM; in the series on HT-29, above 190 µM; in the series on PC-3 it was 118 µM; with M14 it was above 190 µM; with MCF7, 140 µM. In the series on K562, this compound showed a GI50 of 18.9 µM. In series [1], this compound displayed a GI50 at 48 h of 39 µM.
As for `C=CCOc1cc(OC)c(C(=O)/C=C/c2ccccn2)c(OCC=C)c1`, the “Ratio IC50” value in series [2] stood at 1.5. Also, the IC50 came out at 1.9 µM with Trypanosoma cruzi and 2.8 µM in the series with Vero.
Compound `C=CCOc1cc(OC)c(C(=O)/C=C/c2ccc[nH]2)c(OCC=C)c1` had an IC50 with Trypanosoma cruzi above 100 µM.
In the case of `C=CCOc1cc(OC)c(C(=O)/C=C/c2ccco2)c(OCC=C)c1`, the “Ratio IC50” value in [2] was 15.6. Moreover, in the series with Trypanosoma cruzi, inhibition was half-maximal at 12.2 µM (IC50).
As for `C=CCOc1cc(OC)c(C(=O)/C=C/c2ccncc2)c(OCC=C)c1`, the “Ratio IC50” value in series [2] was determined as 1.9. Besides, the IC50 in the series on Trypanosoma cruzi worked out at 1.5 µM; in the series on Vero, 2.8 µM.
Taken in the same sequence, the figures for `C=CCOc1cc(OC)c(C(=O)/C=C/c2ccc(C(F)(F)F)cc2)c(OCC=C)c1` were 0.5, 15.6 µM and 7.2 µM.
In the same order, the values of `C=CCOc1cc(OC)c(C(=O)/C=C/c2ccc(F)cc2)c(OCC=C)c1` are 0.9, 14.3 µM and 13.6 µM.
In the same order, the values of `C=CCOc1cc(OC)c(C(=O)/C=C/c2cc(OC)c(OC)c(OC)c2)c(OCC=C)c1` are 12, 3.4 µM and 40.9 µM.
Turning to `C=CCOc1cc(OC)c(C(=O)/C=C/c2ccc(C)cc2)c(OCC=C)c1`, in series [2], the “Ratio IC50” value was found to be 12.3. Besides, the IC50 in the series with Trypanosoma cruzi was 17.2 µM.
Consider `C=CCOc1cc(OC)c(C(=O)/C=C/c2cccc(OC)c2)c(OCC=C)c1`, for which the “Ratio IC50” value in series [2] was determined as 9.9. In the series with Trypanosoma cruzi, this compound registered an IC50 of 14.2 µM.
Turning to `C=CCOc1cc(OC)c(C(=O)/C=C/C=C/c2ccccc2)c(OCC=C)c1`, the IC50 in the series on Trypanosoma cruzi was above 25 µM.
In the case of `COc1cc(O)c(C(=O)CCc2ccc3c(c2)OCO3)c(OC)c1`, the IC50 in the series on Trypanosoma cruzi is above 100 µM. In addition, the GI50 came to 60.2 µM in the series with DU-145; 105 µM in the series on NCI-H460; 145 µM in the series with HT-29; 39.1 µM with PC-3; 82 µM with M14; 42.4 µM with MCF7. In the series on K562, this compound yielded a GI50 of 28.2 µM. Also, the GI50 at 48 h in series [1] stood at 21.5 µM.
As for `COc1ccc(/C=C/C(=O)c2c(O)cc(O)cc2OC)cc1`, the IC50 in the series on Trypanosoma cruzi was above 25 µM. Also, the GI50 amounted to 9 µM with DU-145; 14 µM with NCI-H460; 21.6 µM in the series with HT-29; 19.3 µM in the series with PC-3; 19.6 µM in the series on M14; 17.3 µM with MCF7. The GI50 with K562 amounted to 17 µM. In series [1], this compound displayed a GI50 at 48 h of 6.7 µM.
The compound `C=CCOc1cc(OC)c(C(=O)/C=C/c2ccc(O)c(OC)c2)c(OCC=C)c1` displayed an IC50 in the series with Trypanosoma cruzi above 25 µM.
Regarding `C=CCOc1cc(OC)c(C(=O)/C=C/c2ccccc2)c(OCC=C)c1`, the “Ratio IC50” value in series [2] amounted to 1. The half-inhibitory concentration (IC50) with Trypanosoma cruzi and in the series with Vero was 17.1 µM in each case.
As to `C=CCOc1cc(OC)c(C(=O)/C=C/c2ccccc2F)c(OCC=C)c1`, the “Ratio IC50” value in series [2] is 2.6. Besides, the IC50 stood at 6.2 µM with Trypanosoma cruzi and 16.3 µM with Vero.
As to `C=CCOc1cc(OC)c(C(=O)/C=C/c2ccccc2Br)c(OCC=C)c1`, the “Ratio IC50” value in series [2] was determined as 1. Besides, the IC50 in the series with Trypanosoma cruzi and in the series with Vero was 13.9 µM in each case.
Regarding `C=CCOc1cc(OC)c(C(=O)/C=C/c2ccc([N+](=O)[O-])cc2)c(OCC=C)c1`, in series [2], the “Ratio IC50” value is listed as 3.1. In addition, the IC50 came to 4.1 µM in the series on Trypanosoma cruzi and 12.6 µM with Vero.
Taken in the same sequence, the figures for `C=CCOc1cc(OC)c(C(=O)/C=C/c2cc(OCC=C)c(Br)c(OCC=C)c2)c(OCC=C)c1` were 13.9, 6.9 µM and 96.3 µM.
Consider `COc1cc(O)cc(O)c1C(=O)/C=C/c1ccc2c(c1)OCO2`, for which the “Ratio IC50” value in series [2] turned out to be 2.7. Besides, the IC50 with Trypanosoma cruzi was 9.4 µM; with Vero it was 25.5 µM. The GI50 in the series on DU-145 is 12.4 µM; in the series with NCI-H460, 15.6 µM; with HT-29, 20.7 µM; in the series on PC-3, 18.5 µM; in the series with M14 it was 22.6 µM; in the series with MCF7, 20.4 µM. The compound also yielded a GI50 in the series with K562 of 16.2 µM. Besides, in series [1], the GI50 at 48 h amounted to 5.1 µM.
Consider `C=CCOc1cc(OC)c(C(=O)/C=C/c2ccc(OC)cc2OC)c(OCC=C)c1`, for which, in [2], the “Ratio IC50” value is on record as 7.1. Moreover, the figures for the IC50 in the series with Trypanosoma cruzi and in the series on Vero were 13.1 µM and 92.6 µM, respectively.
In the same order, the values of `C=CCOc1cc(OC)c(C(=O)/C=C/c2ccc(O)cc2)c(OCC=C)c1` are 3.8, 20.3 µM and 76.4 µM.
In the same order, the values of `C=CCOc1cc(OC)c(C(=O)/C=C/c2ccc(Cl)cc2)c(OCC=C)c1` are 1.2, 8.6 µM and 10.4 µM.
`COc1ccc(CCC(=O)c2c(O)cc(OC)cc2OC)cc1` showed a half-maximal inhibitory concentration (IC50) with Trypanosoma cruzi above 100 µM. Also, the GI50 with DU-145, in the series with NCI-H460, with HT-29, in the series on PC-3, with M14 and in the series with MCF7 was above 197 µM each time. The compound also showed a GI50 in the series on K562 above 197 µM. This compound showed a GI50 at 48 h in series [1] above 197 µM.
As for `C=CCOc1cc(OC)c(C(=O)/C=C/c2ccc3c(c2)OCO3)c(OCC=C)c1`, in [2], the “Ratio IC50” value is given as 5.4. For the same compound, the values for the IC50 with Trypanosoma cruzi and in the series on Vero were 13.6 µM and 73.5 µM, respectively. Further, the GI50 in the series on DU-145 came to 17.5 µM; in the series on NCI-H460 it was 14.5 µM; in the series with HT-29, 24.1 µM; with PC-3, 9.6 µM; with M14, 17.2 µM; in the series on MCF7, 10.9 µM. The compound further had a GI50 with K562 of 12.2 µM. Also, in series [1], growth was halved (GI50 at 48 h) at 31.7 µM.
Take `C=CCOc1cc(OC)c(C(=O)/C=C/c2ccc(OC)cc2)c(OCC=C)c1`: the “Ratio IC50” value in series [2] is reported as 4.7. Further, the results for the IC50 in the series with Trypanosoma cruzi and in the series on Vero were 21.4 µM and 99.9 µM, respectively. Further, the GI50 in the series on DU-145 is 21 µM; in the series on NCI-H460, 20 µM; in the series with HT-29 it was 28.4 µM; in the series on PC-3, 18.1 µM; in the series on M14, 27.6 µM; with MCF7 it was 19.5 µM. Also, in the series on K562, the GI50 was 16.6 µM. The GI50 at 48 h in [1] came to 41 µM.
`COc1ccc(/C=C/C(=O)c2c(O)cc(OC)cc2OC)cc1` [FLAVOKAWAIN A] yielded an IC50 in the series with Trypanosoma cruzi above 25 µM. For the same compound, the GI50 amounted to 30.8 µM in the series on DU-145; 24.1 µM in the series on NCI-H460; 45.3 µM with HT-29; 15.2 µM in the series on PC-3; 22.5 µM with M14; 17.5 µM in the series on MCF7. This compound registered a GI50 in the series with K562 of 20.5 µM. The same compound gave a 50% growth inhibitory concentration (GI50) at 48 h in [1] of 17.2 µM.
For `O=c1[nH]cc(F)c(=O)[nH]1` [FLUOROURACIL], the GI50 was 15.4 µM in the series with DU-145; 4.1 µM in the series with NCI-H460; 8.9 µM in the series on HT-29; 14.6 µM in the series with PC-3; 22.4 µM in the series on M14; 6.5 µM in the series on MCF7. In the series with K562, the GI50 was 16.7 µM. Moreover, in [1], the GI50 at 48 h is below 1.54 µM.
For `CC1CS(=O)(=O)CCN1/N=C/c1ccc([N+](=O)[O-])o1` (stereo unspecified) [NIFURTIMOX], the “Ratio IC50” value in series [2] is on record as 154. Moreover, the IC50 in the series with Trypanosoma cruzi turned out to be 0.52 µM; in the series on Vero, 80.1 µM.

What is called IC50 is the midpoint of a concentration-inhibition curve. In general, GI50 refers to the concentration that inhibits growth by half.
